Source: article PMC8163982, “Partial agonism improves the anti-hyperglycaemic efficacy of an oxyntomodulin-derived GLP-1R/GCGR co-agonist” (Molecular Metabolism, 2021)
Where a SMILES comes first, the peptide text is derived from it. [ ]: non-standard residue; d: D form. Aib = CC(C)(N)C(=O)O

Columns and labels:
recombinant DPP-4 = biological target: T1, recombinant DPP-4 (Homo sapiens, UniProt P27487); test: DPP-4 peptide degradation assay; format: in vitro ADME; conditions: 10 nmol peptide in 750 μl 100 mM Tris–HCl pH 8, 10 mU recombinant DPP-4, 37 °C, 1 or 24 h, intact peptide by RP-HPLC (C18), UV 214 nm, vs no-enzyme control, n = 3
T1 construct: purchased R&D Systems
T1 sequence (P27487 whole entry, species assumed): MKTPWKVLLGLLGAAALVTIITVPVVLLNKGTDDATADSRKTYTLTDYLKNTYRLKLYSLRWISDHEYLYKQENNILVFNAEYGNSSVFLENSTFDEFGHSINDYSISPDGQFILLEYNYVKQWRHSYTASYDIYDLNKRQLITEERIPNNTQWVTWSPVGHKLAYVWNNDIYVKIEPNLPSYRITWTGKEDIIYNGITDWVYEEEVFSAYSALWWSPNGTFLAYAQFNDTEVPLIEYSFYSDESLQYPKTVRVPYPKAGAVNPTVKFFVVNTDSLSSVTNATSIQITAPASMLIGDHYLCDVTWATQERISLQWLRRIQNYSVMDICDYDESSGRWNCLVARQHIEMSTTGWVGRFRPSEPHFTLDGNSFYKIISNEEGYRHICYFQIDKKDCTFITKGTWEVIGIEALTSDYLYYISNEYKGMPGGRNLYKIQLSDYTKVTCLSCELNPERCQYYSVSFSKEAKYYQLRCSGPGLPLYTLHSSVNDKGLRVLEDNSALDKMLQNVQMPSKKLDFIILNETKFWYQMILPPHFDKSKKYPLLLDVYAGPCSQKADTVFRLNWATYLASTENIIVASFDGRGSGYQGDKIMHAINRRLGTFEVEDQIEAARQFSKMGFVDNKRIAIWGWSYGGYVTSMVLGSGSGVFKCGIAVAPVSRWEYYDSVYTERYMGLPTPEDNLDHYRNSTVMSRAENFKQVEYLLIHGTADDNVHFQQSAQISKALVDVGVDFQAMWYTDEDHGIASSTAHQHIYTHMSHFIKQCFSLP
Method: Then, 10 mU of recombinant DPP-4 (R&D Systems) or no enzyme as a control for non-enzymatic degradation over the same time period was added to the reconstituted peptide. Reactions were incubated at 37 °C and 120 μl samples were collected from the reaction vessel at the indicated time points. Then, 5 μl of 10% trifluoroacetic acid (TFA) was added to each sample to terminate enzyme activity. The samples were analysed by reverse-phase high-performance liquid chromatography (HPLC) with a linear acetonitrile/water gradient acidified with 0.1% TFA on Phenomenex Aeris Peptide 3.6 μm XB-C18 columns (150 × 4.6 mm). The eluted peptides were detected at 214 nm. Peptide degradation was calculated by comparing the area under the peak of the original compound with and without enzyme.

GLP-1R = GLP-1R (Homo sapiens, UniProt P43220); test: NanoBiT mini-Gs recruitment to GLP-1R-SmBiT in HEK293T cells; format: cell-based; conditions: SRB103 pair, mean ± SEM, n = 6
GLP-1R, sequence (P43220 24-463): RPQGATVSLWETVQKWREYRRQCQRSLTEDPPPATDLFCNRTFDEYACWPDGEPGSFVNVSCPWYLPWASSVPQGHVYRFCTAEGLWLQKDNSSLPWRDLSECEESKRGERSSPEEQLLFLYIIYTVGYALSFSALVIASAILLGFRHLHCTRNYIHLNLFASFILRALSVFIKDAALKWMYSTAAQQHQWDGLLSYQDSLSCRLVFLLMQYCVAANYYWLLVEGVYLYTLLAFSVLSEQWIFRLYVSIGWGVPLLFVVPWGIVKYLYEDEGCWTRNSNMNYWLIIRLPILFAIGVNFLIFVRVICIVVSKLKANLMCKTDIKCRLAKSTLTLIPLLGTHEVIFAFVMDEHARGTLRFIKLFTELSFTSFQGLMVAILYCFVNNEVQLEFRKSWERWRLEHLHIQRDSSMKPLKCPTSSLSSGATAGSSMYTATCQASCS
Method: The assay was performed as previously described. […] (gifts from Professor Nevin Lambert, Medical College of Georgia) or 0.05 μg of GLP-1R-SmBiT and 0.05 μg of LgBiT-β-arrestin-2 (Promega) plus 0.9 μg of pcDNA3.1 for 24 h. The cells were detached with EDTA, resuspended in HBSS, and furimazine (Promega) was added at a 1:50 dilution from the manufacturer's pre-prepared stock. After dispensing into 96-well white plates, a baseline read of the luminescent signals was serially recorded for 5 min using a FlexStation 3 instrument at 37 °C before the indicated concentration of ligand was added, after which the signals were repeatedly recorded for 30 min. […] Bias was calculated using two approaches. First, the log max/EC50 method was used, with the ratio of Emax to EC50 from 3-parameter fits for each ligand used to quantify agonism. After log10 transformation, responses were expressed relative to the reference agonist on a per assay basis to obtain Δlog(Emax/EC50) for each pathway. Pathway-specific values were then expressed relative to each other to obtain ΔΔlog(Emax/EC50), that is, the log bias factor. Second, a method derived from kinetic curve fitting was used. Here, kinetic responses for a single maximal agonist concentration were normalised at each time point to the vehicle response prior to curve fitting. […]

[1] = Pharmacokinetic study in mice (plasma radioimmunoassay); format: in vivo, mouse; conditions: 0.5 mg/kg IP
Method: The mice were administered 0.5 mg/kg of peptide via IP injection. Four h after injection, blood was acquired by venesection into lithium heparin-coated microvette tubes (Sarstedt, Germany). In a separate study, male Sprague Dawley rats (average weight 250 g, obtained from Charles River) were administered 4 mg/kg of peptide SC mixed in aqueous ZnCl2 solution to a molar ratio of 0.7:1 (peptide:ZnCl2), and blood was collected by venesection at several time points up to 72 h. Plasma was separated by centrifugation at 10,000 g for 8 min at 4 °C. Plasma concentrations were assessed by radioimmunoassay using an in-house assay as previously described using standard curves generated from each SRB103 peptide to ensure that equivalent recovery was obtained.

CC[C@H](C)[C@H](NC(=O)[C@H](Cc1ccccc1)NC(=O)[C@H](CCC(=O)O)NC(=O)[C@H](CCC(N)=O)NC(=O)[C@H](C)NC(=O)[C@H](CCCNC(=N)N)NC(=O)[C@H](CCCCN)NC(=O)[C@H](C)NC(=O)[C@H](CC(=O)O)NC(=O)[C@H](CC(C)C)NC(=O)[C@H](Cc1ccc(O)cc1)NC(=O)[C@H](CCCCN)NC(=O)[C@H](CO)NC(=O)[C@H](Cc1ccc(O)cc1)NC(=O)[C@H](CC(=O)O)NC(=O)[C@H](CO)NC(=O)[C@@H](NC(=O)[C@H](Cc1ccccc1)NC(=O)[C@@H](NC(=O)CNC(=O)[C@H](CCC(N)=O)NC(=O)C(C)(C)NC(=O)[C@@H](N)Cc1c[nH]cn1)[C@@H](C)O)[C@@H](C)O)C(=O)N[C@@H](CCC(=O)O)C(=O)N[C@@H](Cc1c[nH]c2ccccc12)C(=O)N[C@@H](CC(C)C)C(=O)N[C@@H](CC(C)C)C(=O)N[C@@H](C)C(=O)NCC(=O)N[C@@H](Cc1c[nH]cn1)C(=O)N[C@@H](Cc1c[nH]cn1)C(=O)N[C@@H](Cc1c[nH]cn1)C(=O)N[C@@H](Cc1c[nH]cn1)C(=O)N[C@@H](Cc1c[nH]cn1)C(=O)N1CCC[C@H]1C(=O)N[C@@H](CO)C(=O)N[C@@H](Cc1c[nH]c2ccccc12)C(=O)O [SRB103Q] (H-H[Aib]QGTFTSDYSKYLDAKRAQEFIEWLLAGHHHHHPSW-OH)
Resistance to DPP-4-mediated degradation (recombinant DPP-4): highly resistant to DPP-4-mediated degradation

CC[C@H](C)[C@H](NC(=O)[C@H](Cc1ccccc1)NC(=O)[C@H](CCC(=O)O)NC(=O)[C@H](CCC(N)=O)NC(=O)[C@H](C)NC(=O)[C@H](CCCNC(=N)N)NC(=O)[C@H](CCCCN)NC(=O)[C@H](C)NC(=O)[C@H](CC(=O)O)NC(=O)[C@H](CC(C)C)NC(=O)[C@H](Cc1ccc(O)cc1)NC(=O)[C@H](CCCCN)NC(=O)[C@H](CO)NC(=O)[C@H](Cc1ccc(O)cc1)NC(=O)[C@H](CC(=O)O)NC(=O)[C@H](CO)NC(=O)[C@@H](NC(=O)[C@H](Cc1ccccc1)NC(=O)[C@@H](NC(=O)CNC(=O)[C@H](Cc1c[nH]cn1)NC(=O)C(C)(C)NC(=O)[C@@H](N)Cc1c[nH]cn1)[C@@H](C)O)[C@@H](C)O)C(=O)N[C@@H](CCC(=O)O)C(=O)N[C@@H](Cc1c[nH]c2ccccc12)C(=O)N[C@@H](CC(C)C)C(=O)N[C@@H](CC(C)C)C(=O)N[C@@H](C)C(=O)NCC(=O)N[C@@H](Cc1c[nH]cn1)C(=O)N[C@@H](Cc1c[nH]cn1)C(=O)N[C@@H](Cc1c[nH]cn1)C(=O)N[C@@H](Cc1c[nH]cn1)C(=O)N[C@@H](Cc1c[nH]cn1)C(=O)N1CCC[C@H]1C(=O)N[C@@H](CO)C(=O)N[C@@H](Cc1c[nH]c2ccccc12)C(=O)O [SRB103H] (H-H[Aib]HGTFTSDYSKYLDAKRAQEFIEWLLAGHHHHHPSW-OH)
Emax (GLP-1R; HEK-293T, normalised to globally fitted maximum response): 103 ± 4%
EC50 (GLP-1R; 3-parameter fit, read-out: GLP-1R mini-Gs (HEK293T) pEC50 (converted)): 79.4 nM
Resistance to DPP-4-mediated degradation (recombinant DPP-4): highly resistant to DPP-4-mediated degradation
Plasma concentration 4 h after a single dose [1]: the same
